Source: patent US20200376007A1, “THERAPEUTIC COMPOUNDS AND METHODS OF USE THEREOF” (REGENTS OF THE UNIVERSITY OF MINNESOTA, priority 2019, published 2020)

Target: T1, human TGR5 receptor (Homo sapiens, UniProt Q8TDU6)
T1 construct: expressed in transfected cells
T1 sequence (Q8TDU6 1-330): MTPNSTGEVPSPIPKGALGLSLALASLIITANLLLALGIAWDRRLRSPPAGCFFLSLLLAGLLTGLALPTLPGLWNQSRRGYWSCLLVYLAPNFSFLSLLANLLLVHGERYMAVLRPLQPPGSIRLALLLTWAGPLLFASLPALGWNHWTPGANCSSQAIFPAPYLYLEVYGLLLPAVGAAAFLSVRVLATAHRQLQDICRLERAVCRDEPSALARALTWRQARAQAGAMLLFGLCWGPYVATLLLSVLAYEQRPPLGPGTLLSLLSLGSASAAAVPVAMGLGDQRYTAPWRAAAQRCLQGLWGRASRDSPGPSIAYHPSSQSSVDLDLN
Experiment: TGR5 cAMP assay
Format: cell-based
Conditions: TGR5 agonist activity; cAMP production in a recombinant cell line expressing human TGR5 receptor
Procedure: TGR5 agonist activity was evaluated by assaying cAMP production in a recombinant cell line expressing human TGR5 receptor.

| SMILES | EC50 |
| --- | --- |
| CO[C@@H]1C[C@@H]2C[C@H](O)CC[C@]2(C)[C@H]2CC[C@]3(C)[C@@H]([C@H](C)CCC(=O)O)CC[C@H]3[C@H]12 [Example 3, (R)-4-((3R,5S,7R,8R,9S,10S,13R,14S,17R)-3-hydroxy-7-methoxy-10,13-dimethylhexadecahydro-1H-cyclopenta[a]phenanthren-17-yl)pentanoic acid] | 0.0749 µM |
| COCCOCCNC(=O)CC[C@@H](C)[C@H]1CC[C@H]2[C@@H]3[C@H](OC)C[C@@H]4C[C@H](O)CC[C@]4(C)[C@H]3CC[C@]12C [Example 4, (R)-4-((3R,5S,7R,8R,9S,10S,13R,14S,17R)-3-hydroxy-7-methoxy-10,13-dimethylhexadecahydro-1H-cyclopenta[a]phenanthren-17-yl)-N-(2-(2-methoxyethoxy)ethyl)pentanamide] | 0.0495 µM |
| COCc1nnc(CC[C@@H](C)[C@H]2CC[C@H]3[C@@H]4[C@H](OC)C[C@@H]5C[C@H](O)CC[C@]5(C)[C@H]4CC[C@]23C)o1 [Example 5, (3R,5S,7R,8R,9S,10S,13R,14S,17R)-7-methoxy-17-((R)-4-(5-(methoxymethyl)-1,3,4-oxadiazol-2-yl)butan-2-yl)-10,13-dimethylhexadecahydro-1-cyclopenta[a]phenanthren-3-ol] | 0.0226 µM |
| CO[C@@H]1C[C@@H]2C[C@H](O)CC[C@]2(C)[C@H]2CC[C@]3(C)[C@@H]([C@H](C)CCC(=O)NC[C@H](O)[C@@H](O)[C@H](O)[C@H](O)CO)CC[C@H]3[C@H]12 [Example 6, (R)-4-((3R,5S,7R,8R,9S,10S,13R,14S,17R)-3-hydroxy-7-methoxy-10,13-dimethylhexadecahydro-1H-cyclopenta[a]phenanthren-17-yl)-N-((2S,3R,4R,5R)-2,3,4,5,6-pentahydroxyhexyl)pentanamide] | 0.0277 µM |
| CO[C@@H]1C[C@@H]2C[C@H](O)CC[C@]2(C)[C@H]2CC[C@]3(C)[C@@H]([C@H](C)CCC(=O)N(C)C[C@H](O)[C@@H](O)[C@H](O)[C@H](O)CO)CC[C@H]3[C@H]12 [Example 7, (R)-4-((3R,5S,7R,8R,9S,10S,13R,14S,17R)-3-hydroxy-7-methoxy-10,13-dimethylhexadecahydro-1H-cyclopenta[a]phenanthren-17-yl)-N-methyl-N-((2S,3R,4R,5R)-2,3,4,5,6-pentahydroxyhexyl)pentanamide] | 0.0601 µM |
